Results taken from publication PMC12067741, “Inhibition of SOD1 trimerization is a novel drug target for ALS disease” (Translational Neurodegeneration, 2025).
Each block holds one compound with its values, some of them ahead of it.

Key:
[1] = BBB-PAMPA (parallel artificial membrane permeability assay); conditions: for recovery at 4 h, 10 µM: PAMPA
Text: Next, we checked the basic in vitro ADME test including pharmacokinetics, plasma protein binding, CYP (Cytochrome P450) inhibition, metabolic stability and blood–brain barrier (BBB) permeability. […] We also plan to test safety panel assay in the future to obtain safety data for the drug.
Fig. S8. […]

MT-SOD1 protein uptake = assay: SOD1 recombinant protein uptake into neuronal cells; format: cell-based; conditions: SH-SY5Y cells, Dynasore 50 mM (so in the source), 6 hr
Procedure: For monitoring the localization of SOD1 recombinant proteins, SOD1-Halo proteins were added in neuronal cultures for 2 h and then the cells were incubated with the cell-permeable HaloTag-fluorscent ligands (diAcFAM) for 30 min. After incubation, cells were washed with serum-free culture medium three times and incubated in serum-containing culture medium in a CO2 incubator for 30 min to wash out unbound ligand. Fluorescent images of live cells were obtained using a commercial Tomocube HT-2H holotomography system (Daejeon, Republic of Korea).
We hypothesized that PRG-A-04, which targets trimeric SOD1, would inhibit SOD1 protein uptake. MT-SOD1 proteins were incubated with PRG-A-04 in vitro, and then cells were treated with the mixture. The MT-SOD1 protein uptake was reduced by incubation with PRG-A-04, as was SOD1 oligomerization (Fig. 3f, g). […] However, whether neuron-specific receptors on synapses, physiological conditions (neuronal cellular stress such as ion deficiency, environmental conditions such as hypoxia) and other ALS-related genetic causes (TDP-43, FUS, etc.) are essential for SOD1 uptake requires further study.
Fig. S3 SOD1 protein uptake into the cells through endocytosis. a, The uptake of SOD1 proteins was achieved by endocytosis. SH-SY5Y cells were treated with SOD1 recombinant proteins and endocytosis inhibitor (Dynasore; […]) for 6hr. After incubations, cells were harvested with RIPA and separated by SDS-PAGE. S.E: short exposure, L.E: long exposure. b, The recombinant MT-SOD1 protein is located intracellular space in neuron cells. SOD1-Halo proteins (3 μg/ml) were treated in neuron cells for 2 hr and incubated with HaloTag-fluorscent ligands (cellpermeable ligands; diAcFAM) for 30 min. After incubation, cells were washed with fresh culture medium three times and.
Incubate cells in complete culture medium at CO2 incubator for 30 min to wash unbound ligand. The fluorescence images of live cells were obtained using a commercial holotomography (HT-2H). White arrows indicate the intensity of SOD1. BF; Bright field, Scale bar; […].

[2] = Pharmacokinetics in mice (compound screening, IV/PO); format: in vivo, mouse
Procedure: Fig. S1. Optimized inhibitor reduces SOD1 aggregation. a, Mutant SOD1s induced WT-SOD1 aggregation. Testing the selected chemicals to check the inhibitory effect on SOD1 aggregation .HEK293 cells were transfected with MT-SOD1 vectors (A4V, G 93 A) and treated with selected chemicals (5 mM). After incubation, transfected cells were harvested with TNNI buffer and fixed with 0.04% glutaraldehyde (Glu) for 30min. Samples were separated using SDS-PAGE. b-c, PRG-A-04 inhibited SOD1 inclusions in SK-N-SH cells. (b) Cells expressing MT-SOD1 vectors were treated with PRG-A-04 ([…]) for 24 hr. After incubation, cells were fixed with 4 % PFA and observed under the fluorescence microscope. (c) Cells with SOD1 inclusions (white arrows; strong intensity of SOD1) were counted by photomicrographs and the percentages were shown with standard deviation (SD). For cell counting, ten fluorescence images were randomly selected. Counting of cells were performed by three independent observers, who were blinded to transfection or chemical treatment group; two-tailed Student’s t-test. NS; Not significant, ****P < 0.001, d, PRG-A- […]
degradationin blood as well as gastro-intestinal tract.IV; intravenous injected group, PO; Per Os administrated group e, […]
show cytotoxicity. To know the toxic effect of PRG-A-04 , human normal fibroblast (f) and neuron cells (g) were incubated with PRG -A-04 for 48 hr dose dependently and measured the viability through MTT assay .“Con” means Dimethyl sulfoxide (DMSO) -treated control . The data are normalized to DMSO-treated cells. n=3 independent experiments; two-tailed Student’s t-test.NS; Not significant, *P < 0.05, **P < 0.01, ***P < 0.005.

SOD1^G93A−Tg mice = system: SOD1^G93A−Tg mice; design: method as in PMID 34912047; conditions: cited from earlier work
WT-WT SOD1 interaction = system: WT-WT SOD1 interaction; design: method as in PMID 34912047; conditions: cited from earlier work
ALS = conditions: cited from earlier work
[3] = biological target: pan-SOD1 antibody (Pan-SOD1 Ab); assay: dot blot assay, band intensity quantified with Image J; conditions: normalised to Con, read off a plot
[4] = biological target: misfolding-specific SOD1 antibody (Mis-SOD1 Ab); assay: as above; conditions: normalised to Con, read off a plot
[5] = Con (no PRG-A-04), Mis-SOD1 signal over Pan-SOD1 signal
[6] = PRG-A-04 treated, Mis-SOD1 signal over Pan-SOD1 signal

Sequence of WT-SOD1 (wild-type SOD1) expressed in transfected cells (from UniProt P00441) G93A (P00441 whole entry, looked up, stated change not applied): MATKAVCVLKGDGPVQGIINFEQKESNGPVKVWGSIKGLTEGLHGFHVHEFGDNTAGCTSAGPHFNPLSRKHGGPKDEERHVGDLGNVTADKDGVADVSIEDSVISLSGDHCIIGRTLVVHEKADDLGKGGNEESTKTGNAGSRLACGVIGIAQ
Sequence of WT-SOD1 (wild-type SOD1) expressed in transfected cells (from UniProt P00441) G85R (P00441 whole entry, looked up, stated change not applied): as above

Compound: O=C(N/N=C/c1ccc(O)c(O)c1)c1cc2ccccc2cc1O [Dynasore, reference compound]
effect on SOD1 protein uptake (MT-SOD1 protein uptake): inhibited

Compound: CC1=NN(c2ccccc2)C(=O)C1 [radicava]
efficacy on ALS progression (ALS): efficacy in delaying ALS progression
efficacy on survival rate (ALS): no efficacy on survival rate

Compound: Nc1nc2ccc(OC(F)(F)F)cc2s1 [riluzole]
efficacy on ALS progression (ALS): efficacy in delaying ALS progression

Compound: Tofersen
effect on functional decline in clinical trials (ALS; SOD1-ALS patients): failed to improve functional decline

Further lines, with some results ahead:

recovery at 4 h, 10 µM [1]: < 109%
Compound: CC(C)NCC(O)COc1ccc(CC(N)=O)cc1 (stereo not shown) [Atenolol]

bioavailability ([2]; in vivo): poorly bioavailable
degradation in blood as well as gastro-intestinal tract ([2]; pharmacokinetics analysis, IV and PO groups (Fig. S1d)): rapid
Compound: COc1cc(C=CC(=O)OC2Cc3cc4ccc(=O)oc4cc3OC2(C)C)ccc1O (stereo not shown) [PRG-A-01]
extension of lifespan of SOD1G93A-Tg mice (SOD1^G93A−Tg mice): about 10 days
effect on WT-WT SOD1 interaction (WT-WT SOD1 interaction): did not show inhibitory effects

Mean Pe ([1]; BBB-PAMPA, test concentration 10 µM, incubation 4 hour): 7.66 ×10⁻⁶ cm/s
Permeability ([1]; BBB-PAMPA, test concentration 10 µM, incubation 4 hour, class in words): High
recovery at 4 h, 10 µM [1]: 82.4%
Compound: CC(C)NCC(O)COc1cccc2ccccc12 (stereo not shown) [Propranolol]

response ([3]; Con (no PRG-A-04)): 1 A.U.
response ([3]; PRG-A-04 treated): 1.3 A.U.
response [4, 5]: 1 A.U.
response ([4]; Con (no PRG-A-04)): 1 A.U.
response [4, 6]: 0.42 A.U.
response ([4]; PRG-A-04 treated): 0.53 A.U.
Compound: WT-SOD1 (wild-type SOD1) expressed in transfected cells (from UniProt P00441) G85R

response ([3]; Con (no PRG-A-04)): 1 A.U.
response ([3]; PRG-A-04 treated): 0.77 A.U.
response [4, 5]: 1 A.U.
response ([4]; Con (no PRG-A-04)): 1 A.U.
response [4, 6]: 0.25 A.U.
response ([4]; PRG-A-04 treated): 0.2 A.U.
Compound: WT-SOD1 (wild-type SOD1) expressed in transfected cells (from UniProt P00441) G93A
